Reference: patent US20030099677A1, “Cosmetic composition and method of treating skin” (Unilever Home & Personal Care USA, Division of Conopco. Inc., priority 2001, published 2003)

Key:
Type in all cases: cell-based
[1] = tested on: procollagen-I synthesis in human dermal fibroblasts; experiment: Dot blot assay for procollagen-I in dermal fibroblast conditioned medium; details: for Pro-collagen: 24 hours, relative to vehicle treated control value of 100
Protocol: (§1) Primary human foreskin fibroblasts at passage 2 (P2) were seeded into 12-well plates at 10000 cells/cm^2 and maintained for 24 hours in an atmosphere of 5% carbon dioxide and 4% oxygen in Dulbeccos Modified Eagles Medium (DMEM) supplemented with 10% foetal calf serum. After this time the cells were washed with serum free DMEM and then incubated in fresh serum free DMEM for a further 60 hours. The fibroblast monolayers were then washed again with serum free DMEM. Test reagents and vehicle controls were added to the cells in triplicate in a final volume of 0.4 ml/well fresh serum free DMEM and incubated for a further 24 hours. This fibroblast conditioned medium was either analysed immediately or snap frozen in liquid nitrogen and stored at −70° C. for future analysis. The cells were then counted and data from the dot-blot analysis subsequently standardised to cell number.
(§2) Samples of conditioned medium from dermal fibroblasts treated with vehicle (as a control) or test reagents were supplemented with 20 mM dithiothreitol (1:10 dilution of 200 mM stock solution) and 0.1% sodium dodecylsulphate (1:100 dilution of 10% stock solution), mixed well and then incubated at 75° C. for 2 minutes. […]
(§3) Following this the Immobilon strips were again washed with TBS/Tween 20 (3×5 minutes) before being allowed to dry in air at room temperature. […] Dot intensity was assessed by computer-assisted image analysis using the quantification tools in ImageQuant™, standardised to cell number and the effects of various test reagents on decorin and procollagen-I synthesis were determined relative to a vehicle treated control value of 100 arbitrary units.
(§4) Tables 1 indicates the effects of trans-7-octadecanoic acid on procollagen-I and decorin synthesis in human dermal fibroblasts, and the amounts in which it was applied. In order to normalize the results the effects of the test substance was determined relative to a vehicle treated control value of 100 arbitrary units.

[2] = tested on: decorin synthesis in human dermal fibroblasts; experiment: Dot blot assay for decorin in dermal fibroblast conditioned medium; details: for Decorin: 24 hours, relative to vehicle treated control value of 100
Protocol: as §1, §2, §3, §4

[3] = tested on: Human foreskin keratinocytes; experiment: Keratinocyte cornified envelope assay (marker of keratinocyte differentiation)
Protocol: Method to Assess Effect of Active on Keratinocyte Cornified Envelope Production—a Marker of Keratinocyte Differentiation
(§5) […] The cells were grown for 3 days prior to treatment. The treatment vehicle was DMSO. After 4 days of treatment, the cells were harvested and washed three times with 100 μl phosphate buffered saline (PBS). The cells were then extracted in 1% Triton X100, 50 mM Tris pH 8.0, 0.02 mM Leupeptin, 0.02 mM Pepstatin. 60 μl/well extract was then assayed for DNA concentration (ng/well), Pico Green DNA assay, Molecular Probes.
The cells were then washed in 200 μl PBS, and then 100 μl of 2% SDS, 20 mM DTT was added to each well. The plates were then sealed with a Titertek plate sealer (ICN) and incubated at 60° C. over night in an air-tight damp environment (i.e. a sealed sandwich box lined with damp paper). The extract was then filtered through a PVDF transfer membrane (Bio-rad) under gravity using Dot-Blot apparatus (Bio-rad). The membrane was then washed in distilled water prior to silver staining (Bio-rad Silver Stain kit). The stained dot blot membrane was then analyzed using Phoretix array software (Phoretix International).

[4] = tested on: Human foreskin keratinocytes; experiment: Pico Green DNA assay of keratinocyte extracts (proliferation)
Protocol: as §5

[5] = tested on: Transglutaminase activity in pigskin epidermis; experiment: In situ TGase assay in pig skin organ culture; details: for Transglutaminase activity (fluorescence-background) Mean: pig organ culture, 48 hours
Protocol: Porcine back skin was prepared by carefully removing subcutaneous fat and muscle resulting in a skin sample 3-4 mm thick. Hair was clipped and the skin was washed in water, removing any residual blood or dirt. The skin sample was cut into 7 cm×7 cm squares and incubated in 5% Dettol (sterile) for 1 hr at room temp (RT). It was then incubated in DMEM containing ABAM (5 mL/500 mL of medium) for 1 hr. Hydrocortisone 21-hemisuccinate (100îg/mL, sterile filtered) was added to DMEM+ABAM. Tripods and meshes were set up on petri dishes containing 3 ml of media (DMEM/ABAM/hydrocortisone), creating a negative meniscus. Punch biopsies were taken from the skin and placed onto the mesh (4 per dish), and then incubated for 24 hrs at 37° C., 5% CO2 before being treated. Media was changed daily.
A stock solution of 10 mM Biotinylated monodansylcadaverine in 0.013M HCl was, and stored at −20° C. From the stock solution substrate buffer was prepared: 0.1 mM biotinylated monodansylcadaverine, 5 mM CaCl2 in 100 mM Tris HCl. 5 mM CaCl2 was replaced with 200 mM EDTA for a […] control.
Pig skin biopsies were snap frozen in liquid nitrogen and stored at −20° C. Sections were cut (5-8 microns thick, Brights cryostat) and air-dried for 10 minutes at room temperature (RT). The sections were incubated for 30 minutes at RT with 1% BSA in 0.1M Tris/HC1, pH 8.4 then incubated in substrate buffer for 2 hours at RT. The slides were washed to stop the reaction in 25 mM EDTA in PBS for 5 minutes, followed by two washes in PBS. The slides were then incubated in Alexa fluor 488 streptavidin (1:250) for 30 minutes at RT, then washed in PBS as before. The slides were counterstained with 10îg/ml propidium iodide for 10 seconds, then washed in water and mounted in prolong antifade solution. Sections were visualised using a Microscope (Leica, Leitz DMRB, Leitz ploemopak filter block L3, Milton Keynes, Bucks. UK) and images were captured using Image Grabber PC Software (Neotech Ltd. Eastleigh, Hampshire, UK). […]

[6] = human dermal fibroblasts, statement in words
[7] = Table 3, 1 μM, grown in 1.2 mM calcium
[8] = Table 4, 0.001 μM, low calcium, P = 0.002

- Transglutaminase activity (fluorescence-background) Mean ([5]; 0.1 μM): 1908
- Transglutaminase activity (fluorescence-background) Mean ([5]; 1 μM): 2268
SMILES: CCCCCCCCCC/C=C/CCCCCC(=O)O [Trans-7-octadecanoic acid, trans-7-octadecanoic acid]
- Pro-collagen ([1]; 0.1 μM): 194.96 arbitrary units
- Pro-collagen ([1]; 1.0 μM): 126.63 arbitrary units
- effect on synthesis of procollagen-I as compared to the control [1, 6]: significantly up-regulates
- Decorin ([2]; 1.0 μM): 163.10 % of vehicle control
- Decorin ([2]; 10.0 μM): 134.04 % of vehicle control
- effect on synthesis of decorin as compared to the control [2, 6]: significantly up-regulates
- Cornified Envelope Assay Mean ([3]; Table 2, 1 μM, grown in 1.2 mM calcium, 4 days of treatment): 57900
- Cornified Envelope Assay Mean ([3]; Table 2, 10 μM, grown in 1.2 mM calcium, 4 days of treatment): 54689
- Cornified Envelope Assay Mean ([3]; Table 2, 50 μM, grown in 1.2 mM calcium, 4 days of treatment): 49272
- Cornified Envelope Assay Mean ([3]; Table 2, 100 μM, grown in 1.2 mM calcium, 4 days of treatment): 42110
- Cornified Envelope Assay Mean ([3]; Table 3, 0.1 μM, grown in 1.2 mM calcium): 37930
- Cornified Envelope Assay Mean [3, 7]: 47773
- Cornified Envelope Assay Mean [3, 8]: 39627
- Cornified Envelope assay % control [3, 8]: 212 % control
- Cornified Envelope Assay Mean ([3]; Table 4, 0.01 μM, low calcium): 22221
- Cornified Envelope assay % control ([3]; Table 4, 0.01 μM, low calcium): 119 % control
- effect on cornified envelope production ([3]; in low calcium, at low concentrations, statement in words): induces cornified envelope production
- DNA Mean ([4]; Table 2, 1 μM, grown in 1.2 mM calcium, p < 0.05): 9 ng/well
- DNA Mean ([4]; Table 2, 10 μM, grown in 1.2 mM calcium, p < 0.05): 7 ng/well
- DNA Mean ([4]; Table 2, 50 μM, grown in 1.2 mM calcium): 6 ng/well
- DNA Mean ([4]; Table 2, 100 μM, grown in 1.2 mM calcium): 4 ng/well
- DNA Mean ([4]; Table 3, 0.1 μM, grown in 1.2 mM calcium, P < 0.05): 5 ng/well
- DNA Mean [4, 7]: 6 ng/well
- DNA % control ([4]; Table 4, 0.001 μM, low calcium): 100 % control
- DNA Mean ([4]; Table 4, 0.001 μM, low calcium): 1.41 ng/well
- DNA % control ([4]; Table 4, 0.01 μM, low calcium): 100 % control
- DNA Mean ([4]; Table 4, 0.01 μM, low calcium): 1.42 ng/well
- effect on keratinocyte proliferation ([4]; in high calcium, statement in words): proliferation enhancer
- effect on transglutamine cross linking activity ([5]; 1 μM, intact pigskin epidermis, statement in words): induces transglutamine cross linking activity
